These results are taken from article PMC3000536 (Tetrahedron letters, 2011).

The target in assay [1] is T1, Human lysosome α-Galactosidase (Homo sapiens, UniProt P06280).
T1 sequence (P06280 32-429): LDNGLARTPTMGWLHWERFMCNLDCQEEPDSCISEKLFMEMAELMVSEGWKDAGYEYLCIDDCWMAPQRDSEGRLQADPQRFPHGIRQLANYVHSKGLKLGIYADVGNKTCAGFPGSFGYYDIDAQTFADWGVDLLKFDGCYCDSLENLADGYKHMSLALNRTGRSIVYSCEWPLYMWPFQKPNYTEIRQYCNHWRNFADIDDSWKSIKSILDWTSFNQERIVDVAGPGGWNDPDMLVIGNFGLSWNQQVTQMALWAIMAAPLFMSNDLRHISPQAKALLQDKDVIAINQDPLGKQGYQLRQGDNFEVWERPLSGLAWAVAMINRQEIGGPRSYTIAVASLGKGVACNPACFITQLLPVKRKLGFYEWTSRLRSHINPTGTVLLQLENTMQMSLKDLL
In words: Glycosidase inhibition, human lysosome α-galactosidase. Format: biochemical.

The next assay addresses Rat intestinal sucrase (Rattus norvegicus, UniProt P23739). In words: Glycosidase inhibition and kinetic analysis, rat intestinal sucrase. The following applies: for Mode of inhibition of rat intestinal sucrase: kinetic analysis.
For a further assay, the target named is T2, Rat intestinal lactase (Rattus norvegicus, UniProt Q02401).
T2 sequence (Q02401 868-1928): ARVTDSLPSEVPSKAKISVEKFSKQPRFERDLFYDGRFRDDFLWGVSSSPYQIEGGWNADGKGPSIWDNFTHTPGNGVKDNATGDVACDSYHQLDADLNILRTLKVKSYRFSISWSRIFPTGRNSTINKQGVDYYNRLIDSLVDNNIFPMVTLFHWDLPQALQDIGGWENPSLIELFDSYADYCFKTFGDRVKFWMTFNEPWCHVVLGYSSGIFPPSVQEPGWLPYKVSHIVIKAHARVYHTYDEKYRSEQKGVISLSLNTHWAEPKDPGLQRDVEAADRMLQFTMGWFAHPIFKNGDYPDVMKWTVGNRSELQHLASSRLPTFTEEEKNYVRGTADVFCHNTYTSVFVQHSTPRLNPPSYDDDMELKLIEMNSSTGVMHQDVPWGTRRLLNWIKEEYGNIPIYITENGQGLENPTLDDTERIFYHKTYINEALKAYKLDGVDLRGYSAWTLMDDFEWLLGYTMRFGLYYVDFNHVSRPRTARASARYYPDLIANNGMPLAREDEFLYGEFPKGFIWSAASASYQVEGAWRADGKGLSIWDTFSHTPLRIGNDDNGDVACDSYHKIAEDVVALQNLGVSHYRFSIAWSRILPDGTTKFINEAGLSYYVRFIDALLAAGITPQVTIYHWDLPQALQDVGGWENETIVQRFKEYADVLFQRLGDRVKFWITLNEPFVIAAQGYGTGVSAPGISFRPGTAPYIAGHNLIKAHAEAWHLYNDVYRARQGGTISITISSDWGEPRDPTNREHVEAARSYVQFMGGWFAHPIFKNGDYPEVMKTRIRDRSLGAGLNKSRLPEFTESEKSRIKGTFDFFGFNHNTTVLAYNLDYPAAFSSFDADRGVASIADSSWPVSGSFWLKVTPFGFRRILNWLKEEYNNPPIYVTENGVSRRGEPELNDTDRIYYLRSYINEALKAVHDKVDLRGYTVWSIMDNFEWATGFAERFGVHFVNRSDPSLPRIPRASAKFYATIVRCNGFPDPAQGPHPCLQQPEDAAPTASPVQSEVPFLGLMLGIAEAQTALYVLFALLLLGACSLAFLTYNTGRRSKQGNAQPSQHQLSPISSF
In words: Glycosidase inhibition, rat intestinal lactase. Format: biochemical.

Assay [2] concerns the target Coffee beans α-Galactosidase (Coffea arabica, UniProt Q42656). In words: Glycosidase inhibition, coffee beans α-galactosidase. The format is biochemical.
The target of assay [3] is T3, Rat intestinal cellobiase (Rattus norvegicus, UniProt Q02401).
T3 sequence (Q02401 868-1928): T2 sequence (Q02401 868-1928)
In words: Glycosidase inhibition, rat intestinal cellobiase. Format: biochemical.

Assay [4] concerns the target T4, Bovine epididymis α-L-Fucosidase (Bos taurus, UniProt Q2KIM0).
T4 sequence (Q2KIM0 23-468): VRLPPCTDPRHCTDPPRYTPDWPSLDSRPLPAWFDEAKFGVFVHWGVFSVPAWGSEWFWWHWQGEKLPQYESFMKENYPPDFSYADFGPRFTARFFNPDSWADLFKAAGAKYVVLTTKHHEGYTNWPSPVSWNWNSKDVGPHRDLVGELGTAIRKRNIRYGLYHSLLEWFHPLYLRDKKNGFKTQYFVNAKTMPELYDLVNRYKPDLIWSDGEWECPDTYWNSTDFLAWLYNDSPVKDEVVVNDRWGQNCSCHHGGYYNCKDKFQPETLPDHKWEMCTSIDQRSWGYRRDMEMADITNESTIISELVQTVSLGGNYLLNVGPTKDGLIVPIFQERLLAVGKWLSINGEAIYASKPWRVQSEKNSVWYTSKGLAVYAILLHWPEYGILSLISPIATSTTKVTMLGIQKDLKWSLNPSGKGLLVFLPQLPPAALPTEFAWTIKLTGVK
In words: Glycosidase inhibition, bovine epididymis α-L-fucosidase. Format: biochemical.

For a further assay, the target named is Snail β-Mannosidase. In words: Glycosidase inhibition, snail β-mannosidase. The format is biochemical. The following applies: read-out: IC50 β-Mannosidase Snail.

As usually defined, the IC50 is the concentration that inhibits the measured activity by half. For orientation: Ki means the equilibrium dissociation constant of an inhibitor or competing ligand from its target. The low end stands for higher affinity, the high end for lower affinity.

Chain of Coffee beans α-Galactosidase (Q42656 16-378): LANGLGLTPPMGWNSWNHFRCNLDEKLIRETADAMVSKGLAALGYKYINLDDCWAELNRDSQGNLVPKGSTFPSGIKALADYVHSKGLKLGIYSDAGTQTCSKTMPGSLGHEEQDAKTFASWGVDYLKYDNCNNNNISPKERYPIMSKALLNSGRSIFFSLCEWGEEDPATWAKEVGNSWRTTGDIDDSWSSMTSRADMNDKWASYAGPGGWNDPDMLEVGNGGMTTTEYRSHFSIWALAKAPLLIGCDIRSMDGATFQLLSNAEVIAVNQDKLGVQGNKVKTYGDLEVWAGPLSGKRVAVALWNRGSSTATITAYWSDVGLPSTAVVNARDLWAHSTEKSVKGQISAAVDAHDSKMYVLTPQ
Chain of Rat intestinal sucrase (P23739 whole entry): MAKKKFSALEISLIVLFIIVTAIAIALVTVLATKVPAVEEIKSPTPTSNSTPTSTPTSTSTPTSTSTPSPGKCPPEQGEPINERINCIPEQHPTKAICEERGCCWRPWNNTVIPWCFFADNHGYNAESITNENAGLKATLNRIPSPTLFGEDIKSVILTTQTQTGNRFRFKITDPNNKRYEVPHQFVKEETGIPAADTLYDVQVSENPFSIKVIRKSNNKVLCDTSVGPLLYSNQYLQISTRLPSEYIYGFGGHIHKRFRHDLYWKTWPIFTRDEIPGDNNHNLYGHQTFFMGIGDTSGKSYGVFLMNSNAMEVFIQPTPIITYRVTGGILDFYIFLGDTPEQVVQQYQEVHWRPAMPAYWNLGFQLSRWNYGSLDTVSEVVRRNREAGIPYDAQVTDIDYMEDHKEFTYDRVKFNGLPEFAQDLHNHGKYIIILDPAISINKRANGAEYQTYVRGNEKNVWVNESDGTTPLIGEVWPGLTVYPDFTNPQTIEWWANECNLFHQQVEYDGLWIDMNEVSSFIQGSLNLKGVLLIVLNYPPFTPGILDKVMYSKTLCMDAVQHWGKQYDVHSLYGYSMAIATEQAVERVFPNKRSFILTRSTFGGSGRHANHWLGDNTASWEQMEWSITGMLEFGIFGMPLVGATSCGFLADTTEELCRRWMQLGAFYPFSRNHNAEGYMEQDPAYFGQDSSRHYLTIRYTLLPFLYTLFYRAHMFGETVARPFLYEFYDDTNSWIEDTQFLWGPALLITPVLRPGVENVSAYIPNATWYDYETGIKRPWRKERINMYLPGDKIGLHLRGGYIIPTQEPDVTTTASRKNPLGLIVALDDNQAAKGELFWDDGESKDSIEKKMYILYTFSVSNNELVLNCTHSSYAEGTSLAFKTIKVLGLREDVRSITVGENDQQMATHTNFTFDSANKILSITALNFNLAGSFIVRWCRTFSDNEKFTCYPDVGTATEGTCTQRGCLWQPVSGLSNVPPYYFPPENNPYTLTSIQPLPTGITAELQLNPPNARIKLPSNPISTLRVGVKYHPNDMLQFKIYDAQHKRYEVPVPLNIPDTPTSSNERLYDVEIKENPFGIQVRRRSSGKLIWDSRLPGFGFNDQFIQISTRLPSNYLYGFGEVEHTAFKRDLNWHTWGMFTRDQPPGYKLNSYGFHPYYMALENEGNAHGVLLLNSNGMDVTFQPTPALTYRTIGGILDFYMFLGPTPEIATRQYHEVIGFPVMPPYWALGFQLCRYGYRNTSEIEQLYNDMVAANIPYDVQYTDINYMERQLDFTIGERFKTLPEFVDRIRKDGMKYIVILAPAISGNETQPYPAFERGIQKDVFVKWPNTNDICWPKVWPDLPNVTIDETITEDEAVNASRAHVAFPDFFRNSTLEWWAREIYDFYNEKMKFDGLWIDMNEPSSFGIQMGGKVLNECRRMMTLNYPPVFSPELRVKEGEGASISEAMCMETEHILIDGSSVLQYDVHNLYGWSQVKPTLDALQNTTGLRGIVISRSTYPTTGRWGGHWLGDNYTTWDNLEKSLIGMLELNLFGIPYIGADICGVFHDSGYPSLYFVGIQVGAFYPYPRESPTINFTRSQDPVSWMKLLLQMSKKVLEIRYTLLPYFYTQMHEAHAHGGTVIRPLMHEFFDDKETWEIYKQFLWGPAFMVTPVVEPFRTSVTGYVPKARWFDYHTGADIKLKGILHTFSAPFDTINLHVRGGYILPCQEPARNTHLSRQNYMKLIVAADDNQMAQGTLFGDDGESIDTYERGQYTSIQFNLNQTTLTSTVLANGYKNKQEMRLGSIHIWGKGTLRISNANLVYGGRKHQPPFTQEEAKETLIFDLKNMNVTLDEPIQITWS

Take `C[C@]1(CO)NC[C@@H](O)[C@@H]1O` [4-C-Me-DAB 1D, 1,4-dideoxy-1,4-imino-4-C-methyl-D-arabinitol]: the half-maximal inhibitory concentration (IC50) was over 1000 µM in assay [1]; 0.41 µM against Rat intestinal sucrase; over 1000 µM against Rat intestinal lactase; over 1000 µM in assay [2]; over 1000 µM in assay [3]; over 1000 µM in assay [4]. Also, the concentration for half-maximal inhibition (IC50) on Snail β-Mannosidase is over 1000 µM. Further, the inhibitory constant (Ki) on Rat intestinal sucrase was 0.89 µM. The “Mode of inhibition of rat intestinal sucrase” value is given as “competitive inhibitor” at Rat intestinal sucrase (listed as 1D) and “competitive” at Rat intestinal sucrase (listed as 4-C-Me-DAB).
In the case of `C[C@@]1(CO)NC[C@H](O)[C@H]1O` [4-C-Me-LAB 1L], the concentration for half-maximal inhibition (IC50) (in assay [1]; against Rat intestinal lactase; in assay [2]; in assay [3]; in assay [4]; at Snail β-Mannosidase) was over 1000 µM each time. Also, the inhibition constant (Ki) at Rat intestinal sucrase worked out at 0.95 µM. In addition, the results for the “Mode of inhibition of rat intestinal sucrase” value at Rat intestinal sucrase (listed as 1L) and on Rat intestinal sucrase (listed as 4-C-Me-LAB) were “non-competitive inhibitor” and “non-competitive”, respectively.
In the case of `OC[C@@]1(O)CNC[C@H]1O` [isoDAB 2D], the half-inhibitory concentration (IC50) in assay [1] is over 1000 µM; at Rat intestinal sucrase, 15 µM; against Rat intestinal lactase, over 1000 µM; in assay [2], over 1000 µM; in assay [3], over 1000 µM; in assay [4] it was over 1000 µM. Further, at Snail β-Mannosidase, the half-inhibitory concentration (IC50) was over 1000 µM.
Take `OC[C@]1(O)CNC[C@@H]1O` [isoLAB 2L]: the IC50 (in assay [1]; at Rat intestinal sucrase; on Rat intestinal lactase; in assay [2]; in assay [3]; in assay [4]) was over 1000 µM throughout. The half-maximal inhibitory concentration (IC50) at Snail β-Mannosidase was over 1000 µM.
